From publication PMC6152747, “Lipophilicity Studies on Thiosemicarbazide Derivatives” (Molecules : A Journal of Synthetic Chemistry and Natural …, 2017)

Key:
physchem = assay type: physicochemical; settings: for −S: slope of logk vs. methanol concentration (Eq. 1); for chromatographic logP: read-out: logPHPLC; for – S of standards: slope of Eq. 1
Protocol: Methanolic solutions (5 μL, 0.1%) of selected samples were applied to the chromatographic column (RP-18 Waters Symmetry, 15 cm length, 4.6 mm i.d., 5 μm particle size) by use of an autosampler Hitachi L-2200 (LaChrom Elite, Hitachi-Merck, Darmstadt, Germany). The mobile phase, consisting of a methanol and water mixture, was degassed by use of the built-in membrane degasser. […] Chromatograms were detected at 254 nm and the temperature of the column was 25 °C. All experiments were repeated in triplicate and the final results were taken to be the arithmetic means. Dead time was measured by use of uracil (Calbiochem. Merck, Darmstadt, Germany). All experiments were performed at ambient temperature.

[1] = target: S. aureus topoisomerase IV (topo IV); settings: previously tested, cited from earlier work; for IC50: read-out: Inhibitory Potency IC50 Topo IV
S. aureus DNA gyrase = settings: previously tested, read-out: Inhibitory Potency IC50 DNA Gyrase; cited from earlier work
[2] = design: method as in earlier work; settings: octanol–water; OECD guidelines; cited from earlier work
[3] = Table 1, retention factor extrapolated to pure water (Eq. 1), methanol 45–75%, RP-18, 25 °C
[4] = Table 2, retention factor extrapolated to pure water
[5] = from logkw by calibration curve with seven OECD standards (Eq. 3)
[6] = same chromatographic conditions as compounds 1–17

With `COc1cccc(C(=O)NNC(=S)NC(=O)c2ccc(Cl)cc2)c1` [Compound 9] the logkw (physchem; [3]) was 3.9422, the “−S” value (physchem; Table 1) was 5.3417 and the logkw (physchem; [4]) was 3.9422. The chromatographic logP (physchem; [5]) was 4.05.

With `O=C(NNC(=S)Nc1ccccc1)c1cccc(O)c1` [Compound 16] the logkw (physchem; [3]) was 2.0687, the “−S” value (physchem; Table 1) was 4.1968 and the logkw (physchem; [4]) was 2.0687. The chromatographic logP (physchem; [5]) was 2.05.

In the case of `O=C(NNC(=S)Nc1ccc(Cl)c(Cl)c1)c1ccccc1O` [Compound 14], the logkw (physchem; [3]) is reported as 4.1453, the “−S” value (physchem; Table 1) is reported as 5.6538 and the logkw (physchem; [4]) is reported as 4.1453. The chromatographic logP (physchem; [5]) was 4.27.

For `Oc1ccc2ccccc2n1` [2-hydroxyquinoline, reference compound], the logkw of standards (physchem; Table S2, parameters of Eq. 1) was 1.4879, the “– S of standards” value (physchem; Table S2) was 2.9059 and the logkw of standards (physchem; [6]) was 1.3682.

With `Cc1ccc(NC(=S)NNC(=O)c2ccccc2O)cc1Cl` [Compound 15] the logkw (physchem; [3]) was 3.9451, the “−S” value (physchem; Table 1) was 5.5432 and the logkw (physchem; [4]) was 3.9451. The chromatographic logP (physchem; [5]) was 4.06.

For `Cc1nc[nH]c1C(=O)NNC(=S)NC(=O)c1ccccc1` [Compound 20], the IC50 [1] is listed as 90 µM and the “Inhibitory Potency IC50 Topo IV” value [1] is listed as “anti-topo IV activity”.

For `COc1cccc(C(=O)NNC(=S)NC(=O)c2cccc(Cl)c2)c1` [Compound 8], the logkw (physchem; [3]) was 3.7422, the “−S” value (physchem; Table 1) was 5.0742 and the logkw (physchem; [4]) was 3.7422. It also gave a chromatographic logP (physchem; [5]) of 3.84.

In the case of `Cc1occc1C(=O)NNC(=S)NC(=O)c1ccccc1` [Compound 1], the IC50 (S. aureus DNA gyrase) is given as 14.6 µM, the logkw (physchem; [3]) is given as 2.9992 and the “−S” value (physchem; Table 1) is given as 4.3720. For the same compound, the logkw (physchem; [4]) was 2.9992 and the chromatographic logP (physchem; [5]) was 3.05.

For `Cc1ccccc1` [toluene, reference compound], the “– S of standards” value (physchem; Table S2) was 3.4400.

In the case of `O=C(NNC(=S)Nc1ccc(F)cc1)c1cc2ccccc2[nH]1` [Compound 23], the IC50 (S. aureus DNA gyrase) is given as 128 µM, the IC50 [1] is given as 267 µM and the “Inhibitory Potency IC50 Topo IV” value [1] is given as “weak inhibitory potency”.

With `Nc1ccccc1` [aniline, reference compound] the logkw of standards (physchem; Table S2, parameters of Eq. 1) was 1.1365 and the “– S of standards” value (physchem; Table S2) was 2.4091.

In the case of `c1ccccc1` [benzene, reference compound], the logkw of standards (physchem; Table S2, parameters of Eq. 1) is reported as 2.2458 and the “– S of standards” value (physchem; Table S2) is reported as 2.8691.

For `O=C(NNC(=S)NC1CCCCC1)c1cccc(O)c1` [Compound 17], the logkw (physchem; [3]) was 2.7583, the “−S” value (physchem; Table 1) was 4.3297 and the logkw (physchem; [4]) was 2.7583. The chromatographic logP (physchem; [5]) was 2.79.

In the case of `COc1cccc(C(=O)NNC(=S)NC(=O)c2ccccc2)c1` [Compound 4], the logkw (physchem; [3]) is reported as 3.3130, the “−S” value (physchem; Table 1) is reported as 4.8205 and the logkw (physchem; [4]) is reported as 3.3130. For the same compound, the chromatographic logP (physchem; [5]) was 3.38.

For `CCc1ccccc1` [ethylbenzene, reference compound], the logkw of standards (physchem; Table S2, parameters of Eq. 1) was 3.4018, the “– S of standards” value (physchem; Table S2) was 3.8740 and the logkw of standards (physchem; [6]) was 3.3754.

In the case of `Cc1nnsc1C(=O)NNC(=S)Nc1ccc(Br)cc1` [Compound 28], the IC50 [1] is given as 403 µM.

In the case of `O=C(NC(=S)NNC(=O)c1ccc[nH]1)c1ccccc1` [Compound 2], the IC50 (S. aureus DNA gyrase) is listed as 93.3 µM, the IC50 [1] is listed as 41 µM and the “Inhibitory Potency IC50 Topo IV” value [1] is listed as “anti-topo IV activity”. For the same compound, the logkw (physchem; [3]) was 2.5105, the “−S” value (physchem; Table 1) was 4.1416 and the logkw (physchem; [4]) was 2.5105. It also gave a chromatographic logP (physchem; [5]) of 2.53.

For `COc1cccc(C(=O)NNC(=S)NC(=O)c2ccccc2Cl)c1` [Compound 7], the logkw (physchem; [3]) was 3.8283, the “−S” value (physchem; Table 1) was 5.6579 and the logkw (physchem; [4]) was 3.8283. For the same compound, the chromatographic logP (physchem; [5]) was 3.93.

In the case of `O=C(NNC(=S)NC(=O)c1ccccc1Cl)c1ccccc1O` [Compound 3], the logkw (physchem; [3]) is reported as 4.2230, the “−S” value (physchem; Table 1) is reported as 6.1166 and the chromatographic logP (physchem; [5]) is reported as 4.36.

In the case of `O=C(NNC(=S)Nc1ccc(F)cc1F)c1cc2ccccc2[nH]1` [Compound 24], the IC50 [1] is given as 295 µM and the “Inhibitory Potency IC50 Topo IV” value [1] is given as “weak inhibitory potency”.

For `O=C(NNC(=S)Nc1ccc([N+](=O)[O-])cc1)c1ccc[nH]1` [Compound 27], the IC50 (S. aureus DNA gyrase) is given as 64.2 µM.

For `O=C(NNC(=S)Nc1ccc([N+](=O)[O-])cc1)c1cc2ccccc2[nH]1` [Compound 21], the IC50 [1] is given as 14 µM.

For `O=C(NNC(=S)Nc1ccccc1F)c1cc2ccccc2[nH]1` [Compound 22], the IC50 [1] is listed as 63.5 µM and the “Inhibitory Potency IC50 Topo IV” value [1] is listed as “weak inhibitory potency”.

For `c1ccc2ccccc2c1` [naphtalene, reference compound], the “known logPo/w of standards” value [2] is given as 3.6, the logkw of standards (physchem; Table S2, parameters of Eq. 1) is given as 3.5779 and the “– S of standards” value (physchem; Table S2) is given as 4.2289. It also gave a logkw of standards (physchem; [6]) of 3.5502.

With `COc1cccc(C(=O)NNC(=S)NC(=O)c2ccccc2C)c1` [Compound 5] the logkw (physchem; [3]) was 3.4487, the “−S” value (physchem; Table 1) was 4.8562 and the logkw (physchem; [4]) was 3.4487. It also gave a chromatographic logP (physchem; [5]) of 3.53.

In the case of `O=C(NNC(=S)Nc1ccccc1)c1ccccc1O` [Compound 12], the logkw (physchem; [3]) is reported as 2.4813, the “−S” value (physchem; Table 1) is reported as 4.1962 and the logkw (physchem; [4]) is reported as 2.4813. It also gave a chromatographic logP (physchem; [5]) of 2.49.

For `O=C(NNC(=S)NC1CCCCC1)c1ccccc1O` [Compound 13], the logkw (physchem; [3]) was 3.2386, the “−S” value (physchem; Table 1) was 4.7076 and the logkw (physchem; [4]) was 3.2386. For the same compound, the chromatographic logP (physchem; [5]) was 3.3.

With `Brc1ccccc1` [bromobenzene, reference compound] the logkw of standards (physchem; Table S2, parameters of Eq. 1) was 3.0842 and the “– S of standards” value (physchem; Table S2) was 3.6630.

For `COc1cccc(C(=O)NNC(=S)NC(=O)c2cccc(C)c2)c1` [Compound 6], the logkw (physchem; [3]) was 3.7864, the “−S” value (physchem; Table 1) was 5.1137 and the logkw (physchem; [4]) was 3.7864. It also gave a chromatographic logP (physchem; [5]) of 3.89.

In the case of `O=C(NC(=S)NNC(=O)c1cc2ccccc2[nH]1)c1ccccc1` [Compound 18], the IC50 [1] is listed as 14 µM and the “Inhibitory Potency IC50 Topo IV” value [1] is listed as “anti-topo IV activity”.

For `O=C(NC(=S)NNC(=O)c1cccs1)c1ccccc1` [Compound 19], the IC50 (S. aureus DNA gyrase) is given as 83.6 µM.

For `O=C(NNC(=S)Nc1ccc(Cl)cc1)c1ccccc1O` [Compound 11], the logkw (physchem; [3]) was 3.3324, the “−S” value (physchem; Table 1) was 4.8778 and the logkw (physchem; [4]) was 3.3324. For the same compound, the logPHPLC (physchem; [5]) was 3.4026.

For `O=C(CS(=O)(=O)c1ccccc1)NNC(=S)NC(=O)c1ccccc1Cl` [Compound 10], the logkw (physchem; [3]) was 3.2498, the “−S” value (physchem; Table 1) was 5.7291 and the logkw (physchem; [4]) was 3.2498. For the same compound, the chromatographic logP (physchem; [5]) was 3.31.
